Experimental data as given in patent publication US20220389515A1, “USE OF BIOMARKERS TO PREDICT CLINICAL SENSITIVITY TO 2-(4-CHLOROPHENYL)-N-((2-(2,6-DIOXOPIPERIDIN-3-YL)-1-OXOISOINDOLIN-5-YL)METHYL)-2,2-DIFLUOROACETAMIDE” (priority 2019, published 2022).

Columns and labels:
AML cell lines = experiment: Cell proliferation assay (CTG) in AML cell lines, 72 hours; format: cell-based, human; details: 11 AML cell lines, Day 3
Procedure: On Day 3, cell proliferation was assessed by the Cell-Titer Glo (CTG) assay.
For cell proliferation assays, human cancer cell lines cultured in the growth medium recommended by the vendor (as described above) were seeded into black 384-well plates containing DMSO or test compounds. The seeding density of each cell line was optimized to allow for cell growth in the linear growth phase during a 3-day culture period. To test the compounds' effect on cell proliferation in AML cell lines, 5,000 to 10,000 cells per well in 200 L complete culture media were seeded into black 96-well plates containing DMSO or test compounds. After 72 hours, cell proliferation was assessed using the CTG assay according to the manufacturer's instructions. […] Relative cell proliferation was normalized against cell growth values on day 4. The growth inhibitory curve was processed and graphed using GraphPad Prism Version 7 (P<0.05, unpaired two-sided t-test, is considered as significant).

[1] = tested on: U937 cells stably expressing Cas9; experiment: Genome-wide CRISPR-Cas9 screen of Compound D response; format: cell-based, human
Procedure: FIG. 4A illustrates the schematic showing the design of the genome-wide CRISPR screen to identify molecular determinants of Compound D response. FIG. 4B illustrates the cell proliferation curve of U937-Cas9 cells transduced with the lentiviral sgRNA library and treated with DMSO or Compound D. Three days post-transduction, cells were treated with DMSO or 10 μM Compound D for 9 days. FIG. 4C illustrates normalized sgRNA read count comparison of different treatment conditions and technical replicates on day 3 and day 12 post-transduction of the lentiviral sgRNA library. 150 k sgRNAs are used in the scatter plots. Numbers in the upper right boxes indicate the Pearson correlation coefficient between samples. “***” indicates the correlation p-value is <0.001. sgRNAs targeting UBE2G1 or CRBN were shown in green and red, respectively. FIG. 4D illustrates pathway enrichment analysis of genes enriched by Compound D treatment with log 2 fold change (log 2FC)>2 and false discovery rate (FDR)<0.05 relative to the DMSO control. The color and size of the dots represent adjusted significance level and gene ratio respectively. Gene ratios refer to the number of input genes annotated to an individual pathway as a ratio of all input genes annotated to any Reactome pathway. […] The X axis denotes the Compound D enrichment score shown as log 2FC; the Y axis denotes the gene essentiality score shown as log 2FC (T12_DMSO vs T3_DMSO). Some of these genes were grouped into 10 functional modules with different color coding. […] Enriched pathways from the Reactome database were identified using Fisher's exact test and were selected by adjusted p-value (FDR)<0.05. Pathway nodes are color-coded with different shades of red according to their statistical significance. The grey nodes in the graph depict pathway genes that were enriched by Compound D treatment. The core enriched pathways modulating the response to Compound D are highlighted with green circles. FIGS. 4G and 4H show the log 2FC values of sgRNAs targeting Compound D enriched genes in the functional modules as indicated. […]

O=C1CCC(N2Cc3cc(CNC(=O)C(F)(F)c4ccc(Cl)cc4)ccc3C2=O)C(=O)N1 (stereo not shown) [Compound D, 2-(4-chlorophenyl)-N-((2-(2,6-dioxopiperidin-3-yl)-1-oxoisoindolin-5-yl)methyl)-2,2-difluoroacetamide]
anti-proliferative activity (AML cell lines): potent anti-proliferative activity in 10 out of 11 AML cell lines | growth of U937 cells transduced with the lentiviral CRISPR library ([1]; 10 μM, 9 days): growth arrest of U937 cells | genes whose knockout conferred resistance (sgRNA enrichment) ([1]; U937-Cas9, 1 μM or 10 μM): knockout of CRBN, TSC1, TSC2, ILF2, ILF3, ATF4, GCN2, DDIT4 or GCN1L1 genes conferred resistance to lethal doses of Compound D | genes whose knockout enhanced sensitivity (sgRNA drop-out) ([1]; U937-Cas9, sensitivity screen): knockout of RPTOR, MTOR, RICTOR, GSPT1 or DDX5 enhanced sensitivity to lethal doses of Compound D
